The target of assay [1] is Cyclin-dependent kinase 1/cyclin B1 (Homo sapiens) (UniProt P06493+P14635). Put plainly: (§1) Selectivity interaction (ProQinase) EUB0000171b CDK1. The class given is protein-complex assay.
Assay [2] has as its target CDK1/Cyclin A (Homo sapiens) (UniProt P06493+P20248). The assay is described as §1. Type of assay: protein-complex assay.
Assay [3] has as its target CDK1/Cyclin E (Homo sapiens) (UniProt P06493+P24864). The assay is described as §1. The class given is protein-complex assay.
The target in assay [4] is Cyclin-dependent kinase 16 (Homo sapiens) (UniProt Q00536). The settings on record: at 10 µM.
Sequence of Cyclin-dependent kinase 16 (Homo sapiens) (Q00536 whole entry): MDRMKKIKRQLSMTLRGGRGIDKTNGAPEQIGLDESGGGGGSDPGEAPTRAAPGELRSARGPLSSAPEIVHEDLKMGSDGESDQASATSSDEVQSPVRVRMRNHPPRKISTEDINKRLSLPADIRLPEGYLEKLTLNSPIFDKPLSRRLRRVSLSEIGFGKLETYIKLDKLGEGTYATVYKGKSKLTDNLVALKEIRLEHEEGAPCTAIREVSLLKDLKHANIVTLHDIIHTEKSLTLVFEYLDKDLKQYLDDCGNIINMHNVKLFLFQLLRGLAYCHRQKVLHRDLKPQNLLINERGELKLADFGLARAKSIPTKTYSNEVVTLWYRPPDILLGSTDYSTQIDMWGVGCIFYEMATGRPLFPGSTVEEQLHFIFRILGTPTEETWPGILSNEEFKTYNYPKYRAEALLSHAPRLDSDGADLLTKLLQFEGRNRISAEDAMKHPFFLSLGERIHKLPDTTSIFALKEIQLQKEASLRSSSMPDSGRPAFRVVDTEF
For assay [5], the target named is T1, Tyrosine-protein kinase ITK/TSK (Homo sapiens) (UniProt Q08881).
T1 sequence (whole entry): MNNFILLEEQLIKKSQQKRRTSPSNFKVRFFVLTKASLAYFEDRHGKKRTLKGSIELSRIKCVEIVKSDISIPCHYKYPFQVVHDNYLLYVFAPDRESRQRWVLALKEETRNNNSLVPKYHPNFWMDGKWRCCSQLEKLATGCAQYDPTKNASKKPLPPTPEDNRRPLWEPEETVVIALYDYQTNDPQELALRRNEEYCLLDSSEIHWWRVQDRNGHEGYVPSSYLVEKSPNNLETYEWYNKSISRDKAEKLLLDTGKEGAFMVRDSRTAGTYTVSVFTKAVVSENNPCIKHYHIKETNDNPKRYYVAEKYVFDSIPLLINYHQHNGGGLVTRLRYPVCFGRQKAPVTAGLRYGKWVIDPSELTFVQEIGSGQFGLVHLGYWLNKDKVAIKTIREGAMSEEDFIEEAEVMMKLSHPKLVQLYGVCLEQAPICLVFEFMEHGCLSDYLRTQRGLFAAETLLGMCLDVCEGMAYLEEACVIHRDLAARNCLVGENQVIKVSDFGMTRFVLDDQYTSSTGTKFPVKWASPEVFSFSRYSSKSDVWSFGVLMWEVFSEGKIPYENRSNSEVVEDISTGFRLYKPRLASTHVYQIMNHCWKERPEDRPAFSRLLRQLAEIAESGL
Briefly: Selectivity interaction (KinomeScan (DiscoverX)) EUB0000655a ITK. The settings on record: at 10 µM.

The target of assay [6] is Protein-tyrosine kinase 6 (Homo sapiens, UniProt Q13882). Put plainly: Selectivity interaction (KinomeScan (DiscoverX)) EUB0000666a PTK6. The settings on record: at 10 µM.
Sequence of Protein-tyrosine kinase 6 (Q13882 whole entry, looked up): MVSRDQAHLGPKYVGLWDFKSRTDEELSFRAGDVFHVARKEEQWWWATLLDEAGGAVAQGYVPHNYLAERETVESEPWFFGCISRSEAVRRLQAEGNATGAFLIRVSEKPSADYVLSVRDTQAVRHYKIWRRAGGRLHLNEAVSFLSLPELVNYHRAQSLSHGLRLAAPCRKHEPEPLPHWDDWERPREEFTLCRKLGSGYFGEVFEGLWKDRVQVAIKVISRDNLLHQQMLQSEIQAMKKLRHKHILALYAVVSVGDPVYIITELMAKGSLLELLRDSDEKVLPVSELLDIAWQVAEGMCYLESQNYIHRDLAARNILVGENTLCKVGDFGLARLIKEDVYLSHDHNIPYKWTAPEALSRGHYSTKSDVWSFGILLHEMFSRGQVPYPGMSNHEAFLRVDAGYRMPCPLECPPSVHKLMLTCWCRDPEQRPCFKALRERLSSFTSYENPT
In assay [7] the target is MAP kinase-interacting serine/threonine-protein kinase 1 (Homo sapiens) (UniProt Q9BUB5). Put plainly: Selectivity interaction (Kinase panel (Z-LYTE Assay)) EUB0001632a MKNK1. The settings on record: at 10 µM.
Sequence of MAP kinase-interacting serine/threonine-protein kinase 1 (Homo sapiens) (Q9BUB5 whole entry, looked up): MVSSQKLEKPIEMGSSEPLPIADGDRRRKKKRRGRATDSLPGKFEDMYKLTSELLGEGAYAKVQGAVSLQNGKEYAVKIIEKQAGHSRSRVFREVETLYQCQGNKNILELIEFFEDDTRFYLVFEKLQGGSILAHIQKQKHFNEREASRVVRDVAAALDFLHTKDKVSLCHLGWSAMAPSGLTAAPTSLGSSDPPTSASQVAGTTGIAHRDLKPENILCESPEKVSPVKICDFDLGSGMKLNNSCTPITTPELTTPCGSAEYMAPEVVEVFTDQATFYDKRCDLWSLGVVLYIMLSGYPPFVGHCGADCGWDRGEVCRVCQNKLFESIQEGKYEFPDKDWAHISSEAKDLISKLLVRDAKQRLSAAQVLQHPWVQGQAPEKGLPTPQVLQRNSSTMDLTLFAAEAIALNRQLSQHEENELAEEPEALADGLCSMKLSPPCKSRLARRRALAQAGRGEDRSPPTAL
The target in assay [8] is STE20/SPS1-related proline-alanine-rich protein kinase (Homo sapiens) (UniProt Q9UEW8). Put plainly: Selectivity interaction (LanthaScreen Eu Kinase Binding Assay) EUB0001632a STK39. The settings on record: at 10 µM.
Assay [9] addresses T2, Serine/threonine-protein kinase D3 (Homo sapiens) (UniProt O94806).
T2 sequence (whole entry): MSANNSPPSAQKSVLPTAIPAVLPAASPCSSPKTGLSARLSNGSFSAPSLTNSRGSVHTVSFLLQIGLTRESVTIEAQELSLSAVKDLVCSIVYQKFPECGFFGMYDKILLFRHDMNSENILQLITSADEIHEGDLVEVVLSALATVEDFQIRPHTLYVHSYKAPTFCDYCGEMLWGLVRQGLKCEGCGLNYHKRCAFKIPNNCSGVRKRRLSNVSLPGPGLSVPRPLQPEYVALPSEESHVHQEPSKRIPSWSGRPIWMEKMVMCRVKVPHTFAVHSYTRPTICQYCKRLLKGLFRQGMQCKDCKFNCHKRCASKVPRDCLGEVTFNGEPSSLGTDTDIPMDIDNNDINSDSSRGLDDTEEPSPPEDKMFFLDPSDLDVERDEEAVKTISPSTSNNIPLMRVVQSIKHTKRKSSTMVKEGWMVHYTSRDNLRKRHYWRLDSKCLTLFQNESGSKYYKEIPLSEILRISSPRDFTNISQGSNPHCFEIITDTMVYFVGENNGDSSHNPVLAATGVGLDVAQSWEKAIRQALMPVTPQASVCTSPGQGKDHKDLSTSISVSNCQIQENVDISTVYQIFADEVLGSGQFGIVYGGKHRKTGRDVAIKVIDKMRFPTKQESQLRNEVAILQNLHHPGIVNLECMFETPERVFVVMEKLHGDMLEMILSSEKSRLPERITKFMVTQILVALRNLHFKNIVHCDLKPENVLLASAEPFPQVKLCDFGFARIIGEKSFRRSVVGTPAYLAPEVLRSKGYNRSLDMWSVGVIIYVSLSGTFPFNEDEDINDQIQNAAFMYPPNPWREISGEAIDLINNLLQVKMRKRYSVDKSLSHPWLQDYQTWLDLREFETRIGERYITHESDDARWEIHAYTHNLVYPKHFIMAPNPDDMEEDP
Briefly: Selectivity interaction (ActivX KiNativ screen (kinase selectivity in THP-1 cell lysates)) EUB0000639a PRKD3. Type of assay: subcellular. Conditions: lysate.

The target of assay [10] is T3, Serine/threonine-protein kinase Nek3 (Homo sapiens) (UniProt P51956).
T3 sequence (whole entry): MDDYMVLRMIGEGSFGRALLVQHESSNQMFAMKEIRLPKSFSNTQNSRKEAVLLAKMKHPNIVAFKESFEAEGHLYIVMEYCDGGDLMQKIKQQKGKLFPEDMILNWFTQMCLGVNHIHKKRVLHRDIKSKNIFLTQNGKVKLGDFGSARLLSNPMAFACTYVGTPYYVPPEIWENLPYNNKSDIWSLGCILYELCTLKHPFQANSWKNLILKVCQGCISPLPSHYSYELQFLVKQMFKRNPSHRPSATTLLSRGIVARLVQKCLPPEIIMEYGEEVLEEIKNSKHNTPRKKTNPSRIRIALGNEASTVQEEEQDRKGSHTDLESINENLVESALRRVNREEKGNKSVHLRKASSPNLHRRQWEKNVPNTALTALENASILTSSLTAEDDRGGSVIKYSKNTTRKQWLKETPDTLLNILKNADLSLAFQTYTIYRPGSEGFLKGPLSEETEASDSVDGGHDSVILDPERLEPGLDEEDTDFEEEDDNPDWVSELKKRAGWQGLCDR
Put plainly: Selectivity interaction (Kinase panel (KiNativ target engagement assay in Jurkat cells)) EUB0001635a NEK3. The class given is cell-based. The settings on record: at 1 µM.

In assay [11] the target is Tyrosine-protein kinase Fer (Homo sapiens) (UniProt P16591). Put plainly: Selectivity interaction (Kinase panel (KiNativ target engagement assay in Jurkat cells)) EUB0001635a FER. Type of assay: cell-based. The settings on record: Selectivity number of off-targets 0.0, Selectivity number of targets 233.0, Source Knowledge https://www.sciencedirect.com/science/article/pii/S2451945619300674?via%3Dihub, at 1 µM.
Sequence of Tyrosine-protein kinase Fer (Homo sapiens) (P16591 whole entry, looked up): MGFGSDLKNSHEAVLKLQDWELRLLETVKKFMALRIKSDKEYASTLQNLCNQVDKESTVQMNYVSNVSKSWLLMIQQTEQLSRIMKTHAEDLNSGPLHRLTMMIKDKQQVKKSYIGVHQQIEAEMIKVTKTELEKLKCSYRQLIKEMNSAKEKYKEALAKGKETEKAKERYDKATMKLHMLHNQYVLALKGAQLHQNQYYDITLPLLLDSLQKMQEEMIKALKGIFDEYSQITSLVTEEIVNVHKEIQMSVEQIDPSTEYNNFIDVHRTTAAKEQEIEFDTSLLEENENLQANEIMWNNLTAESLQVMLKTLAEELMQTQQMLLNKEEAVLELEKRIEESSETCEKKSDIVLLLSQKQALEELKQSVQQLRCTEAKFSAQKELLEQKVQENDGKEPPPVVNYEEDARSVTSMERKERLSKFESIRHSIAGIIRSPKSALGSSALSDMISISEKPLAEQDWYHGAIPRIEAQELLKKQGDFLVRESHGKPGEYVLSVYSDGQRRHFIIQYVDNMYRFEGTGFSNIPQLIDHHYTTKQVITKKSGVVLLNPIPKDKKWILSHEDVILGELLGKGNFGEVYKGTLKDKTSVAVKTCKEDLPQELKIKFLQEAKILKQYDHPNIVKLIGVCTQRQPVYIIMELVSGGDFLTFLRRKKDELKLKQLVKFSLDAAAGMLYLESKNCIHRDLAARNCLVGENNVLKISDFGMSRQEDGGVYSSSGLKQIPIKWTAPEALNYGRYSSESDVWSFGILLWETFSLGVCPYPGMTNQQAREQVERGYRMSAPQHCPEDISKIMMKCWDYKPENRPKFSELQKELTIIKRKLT

Sequence of CDK1/Cyclin E (Homo sapiens) (P06493 whole entry, looked up): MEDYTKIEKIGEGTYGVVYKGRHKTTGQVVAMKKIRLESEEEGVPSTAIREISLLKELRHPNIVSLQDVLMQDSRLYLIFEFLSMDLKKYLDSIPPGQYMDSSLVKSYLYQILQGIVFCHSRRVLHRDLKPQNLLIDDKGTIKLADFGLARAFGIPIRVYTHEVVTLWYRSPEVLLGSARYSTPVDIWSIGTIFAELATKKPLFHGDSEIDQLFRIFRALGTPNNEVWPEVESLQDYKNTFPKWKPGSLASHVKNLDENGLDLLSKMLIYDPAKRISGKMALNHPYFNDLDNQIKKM
Sequence of CDK1/Cyclin E (Homo sapiens) (P24864 whole entry, looked up): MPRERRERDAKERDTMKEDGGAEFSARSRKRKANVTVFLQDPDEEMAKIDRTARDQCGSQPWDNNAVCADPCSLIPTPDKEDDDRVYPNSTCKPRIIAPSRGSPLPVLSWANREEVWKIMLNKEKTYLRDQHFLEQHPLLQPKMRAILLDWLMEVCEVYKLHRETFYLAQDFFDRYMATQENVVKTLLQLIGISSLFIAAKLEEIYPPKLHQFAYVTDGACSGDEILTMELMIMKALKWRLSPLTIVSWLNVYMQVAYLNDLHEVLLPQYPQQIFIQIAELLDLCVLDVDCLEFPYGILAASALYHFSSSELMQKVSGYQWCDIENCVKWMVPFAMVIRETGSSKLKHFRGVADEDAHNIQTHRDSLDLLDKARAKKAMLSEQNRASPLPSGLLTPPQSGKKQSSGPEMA
Sequence of Cyclin-dependent kinase 1/cyclin B1 (Homo sapiens) (P06493 whole entry, looked up): as the sequence (P06493 whole entry, looked up) above
Sequence of Cyclin-dependent kinase 1/cyclin B1 (Homo sapiens) (P14635 whole entry, looked up): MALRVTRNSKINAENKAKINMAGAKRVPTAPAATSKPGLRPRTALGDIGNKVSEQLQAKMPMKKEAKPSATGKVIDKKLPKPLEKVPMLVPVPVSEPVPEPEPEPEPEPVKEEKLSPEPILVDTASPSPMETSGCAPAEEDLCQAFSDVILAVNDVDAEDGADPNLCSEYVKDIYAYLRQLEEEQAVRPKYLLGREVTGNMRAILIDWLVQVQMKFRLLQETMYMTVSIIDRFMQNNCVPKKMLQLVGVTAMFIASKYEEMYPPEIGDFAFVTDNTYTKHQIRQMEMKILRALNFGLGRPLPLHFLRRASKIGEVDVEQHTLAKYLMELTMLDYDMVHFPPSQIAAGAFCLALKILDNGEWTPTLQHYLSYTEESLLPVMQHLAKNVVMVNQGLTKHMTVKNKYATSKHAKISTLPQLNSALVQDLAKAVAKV
Sequence of CDK1/Cyclin A (Homo sapiens) (P06493 whole entry, looked up): as the sequence (P06493 whole entry, looked up) above
Sequence of CDK1/Cyclin A (Homo sapiens) (P20248 whole entry, looked up): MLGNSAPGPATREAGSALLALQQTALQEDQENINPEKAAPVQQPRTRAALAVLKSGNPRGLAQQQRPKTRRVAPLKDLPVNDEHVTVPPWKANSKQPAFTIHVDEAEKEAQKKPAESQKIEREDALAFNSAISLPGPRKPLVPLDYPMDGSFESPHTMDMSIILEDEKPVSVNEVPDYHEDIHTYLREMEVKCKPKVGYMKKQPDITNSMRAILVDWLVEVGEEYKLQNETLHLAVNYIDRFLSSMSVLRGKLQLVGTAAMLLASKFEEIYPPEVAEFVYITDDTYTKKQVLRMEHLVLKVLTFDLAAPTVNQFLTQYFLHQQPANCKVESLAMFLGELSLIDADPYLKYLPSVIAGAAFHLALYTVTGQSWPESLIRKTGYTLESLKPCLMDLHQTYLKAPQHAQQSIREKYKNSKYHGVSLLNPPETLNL

With `C=CC(=O)Nc1cccc(C(=O)Nc2ccc(Nc3cc(-c4[nH]c(SC)nc4C)ccn3)cc2)c1`, the % of control is 94% in assay [1] (at 1 µM); 77% in assay [1] (at 5 µM); 89% in assay [2] (at 1 µM); 79% in assay [2] (at 5 µM); 90% in assay [3] (at 1 µM); 74% in assay [3] (at 5 µM).
With `Cc1cc([C@@H](C)Nc2ccccc2C(=O)O)c2nc(N3CCOCC3)cc(=O)n2c1` [AZD-6482], in [4], the % of control is 100%.
In assay [5], `CN(C)CCOc1ccc(-c2nc(-c3ccncc3)c(-c3ccc4c(c3)CC/C4=N\O)[nH]2)cc1` yielded a % of control of 98%.
As for `O=C(NOC[C@H](O)CO)c1ccc(F)c(F)c1Nc1ccc(I)cc1F`, the % of control in assay [6] was determined as 46%.
In assay [7], `Cn1cc(-n2cnc3c(NCc4nc5cc(Cl)c(Cl)cc5[nH]4)nc(N4CCOCC4)nc32)cn1` gave a % of control of 2.99%. Moreover, the % of inhibition in assay [8] is -29.3%.
For the compound `CC[C@@H]1[C@H](F)C(=O)N[C@@H]1COc1nccc2cc(C(N)=O)c(OC)cc12` [ZIMLOVISERTIB], the % of inhibition is -8.3% in assay [9] (at 0.01 µM); -5.9% in [9] (at 0.04 µM); -13.7% in assay [9] (at 0.2 µM); 3.6% in assay [9] (at 1 µM); -22.1% in assay [9] (at 5 µM).
Regarding `C=CC(=O)Nc1ccc(C(=O)Nc2[nH]nc3c2CN(C(=O)N[C@H](CN(C)C)c2ccccc2)C3(C)C)cc1`, the results for the % of engagement in assay [10] and in [11] were 4.4% and -2.6%, respectively.

For the origin of these results see ChEMBL document CHEMBL5465560, “Selectivity Literature for EUbOPEN Chemogenomic Library” (2024).
